Source: ChEMBL document CHEMBL4321872, “Engineering a Potent, Long-Acting, and Periphery-Restricted Oxytocin Receptor Agonist with Anorexigenic and Body Weight Reducing Effects” (J Med Chem, 2020)
Active and inactive are the calls of the source. The calls are words filed in the database; no cut-off is given here. Numbered stars: 1 amine (or outer) side, 2 acyl side, 3 side chain; on linkers, the order of the positions; unused ones are H or OH. Bridge positions count the residues as written; N and C are the ends. Square brackets hold non-standard residues; d marks the D form. Side chains are listed from the residue outwards. Peptide text beside a SMILES is read from it. * marks the point of attachment. X1 = O=C(O)CCCCCCCCCCCCCCCCC(=O)N[C@@H](CCCCNC(=O)CCOCCOCCNC(=O)CCOCCOCCNC(=O)C*)C(=O)O; X4 = O=C(O)CCCCCCCCCCCCCCCCC(=O)NCCOCCOCCOCCNC(=O)C*; PEG8 = NCCOCCOCCOCCOCCOCCOCCOCCOCCC(=O)O; X3 = CCCCCCCCCCCCCC(=O)NCCOCCOCCNC(=O)C*; Palmitoyl = CCCCCCCCCCCCCCCC(=O)*; X2 = O=C(CCC[*:2])[*:1]; Sar = CNCC(=O)O; Cam = NC(=O)C*

Legend:
[1] = Half life in C57BL/6J mouse at 20 mg/kg, sc by LC-MS/MS analysis; type: ADME, organism-based; details: in vivo
Oxytocin receptor [2] = target: T1, Oxytocin receptor (Homo sapiens, UniProt P30559); assay: Agonist activity at recombinant human Gi/Go-coupled OTR expressed in CHOK1 cells assessed as induction of beta-arrestin recruitment measured after 90 mins in presence of 10% FBS by pathhunter assay; type: cell-based
T1 sequence (P30559 whole entry): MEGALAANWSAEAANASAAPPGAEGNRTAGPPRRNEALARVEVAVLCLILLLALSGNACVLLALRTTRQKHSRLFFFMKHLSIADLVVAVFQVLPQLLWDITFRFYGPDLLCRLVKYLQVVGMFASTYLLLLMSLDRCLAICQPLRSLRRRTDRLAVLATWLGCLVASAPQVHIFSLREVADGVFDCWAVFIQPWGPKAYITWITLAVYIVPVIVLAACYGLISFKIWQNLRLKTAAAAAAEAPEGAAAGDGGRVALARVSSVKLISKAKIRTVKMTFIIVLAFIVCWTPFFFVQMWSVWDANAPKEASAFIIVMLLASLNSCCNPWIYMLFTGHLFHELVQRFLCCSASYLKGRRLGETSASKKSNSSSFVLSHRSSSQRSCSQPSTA

[3] = target: T2, Oxytocin receptor (Homo sapiens) (UniProt P30559); assay: Agonist activity at recombinant human Gi/Go-coupled OTR expressed in CHOK1 cells assessed as induction of beta-arrestin recruitment measured after 90 mins in presence of 10% FBS by pathhunter assay relative to oxytocin; type: cell-based
T2 sequence (whole entry): T1 sequence (P30559 whole entry)

Oxytocin receptor [4] = target: T1, Oxytocin receptor; assay: Agonist activity at recombinant human Gi/Go-coupled OTR expressed in CHOK1 cells assessed as induction of beta-arrestin recruitment measured after 90 mins in absence of 10% FBS by pathhunter assay; type: cell-based
[5] = target: T2, Oxytocin receptor (Homo sapiens); assay: Agonist activity at recombinant human Gi/Go-coupled OTR expressed in CHOK1 cells assessed as induction of beta-arrestin recruitment measured after 90 mins in absence of 10% FBS by pathhunter assay relative to oxytocin; type: cell-based
[6] = target: T2, Oxytocin receptor (Homo sapiens); assay: Ratio of EC50 for agonist activity at recombinant human Gi/Go-coupled OTR expressed in CHOK1 cells in presence of 10% FBS to EC50 for agonist activity at recombinant human Gi/Go-coupled OTR expressed in CHOK1 cells in absence of 10% FBS; type: cell-based
[7] = Aqueous solubility of the compound; type: physicochemical; details: buffer
Vasopressin V2 receptor = Vasopressin V2 receptor (Homo sapiens, UniProt P30518); assay: Agonist activity at recombinant human V2 receptor expressed in CHOK1 cells assessed as increase in cAMP level measured after 30 mins by HTRF assay; type: cell-based
[8] = Tmax in C57BL/6 mouse plasma at 1 mg/kg, sc by LC-MS analysis; type: ADME, organism-based
[9] = Terminal half life in C57BL/6 mouse plasma at 1 mg/kg, sc by LC-MS analysis; type: ADME, organism-based; details: read-out: beta t1/2 (converted)
[10] = Cmax in C57BL/6 mouse plasma at 1 mg/kg, sc by LC-MS analysis; type: ADME, organism-based; set-up: dose 1 mg/kg, route subcutaneous
[11] = AUC (0 to last) in C57BL/6 mouse plasma at 1 mg/kg, sc by LC-MS analysis; type: ADME, organism-based; set-up: dose 1 mg/kg, time 0 - last, route subcutaneous
[12] = Drug level in C57BL/6 mouse at 1 mg/kg, sc measured after 24 hrs by LC-MS analysis; type: ADME, organism-based; details: in vivo, read-out: Drug uptake
[13] = Ratio of drug level in brain to plasma in C57BL/6 mouse at 1 mg/kg, sc measured after 7 hrs by LC-MS analysis; type: ADME, organism-based; details: read-out: BPR
Mus musculus [14] = assay: Anorexigenic activity in C57BL/6J mouse assessed as reduction in food intake at 0.1 mg/kg, sc measured at 3 hrs interval for 24 hrs; type: functional, organism-based
Mus musculus [15] = assay: Anorexigenic activity in C57BL/6J mouse assessed as reduction in body weight at 0.1 mg/kg, sc measured daily for 2 days; type: functional, organism-based
Mus musculus [16] = assay: Anorexigenic activity in sc dosed C57BL/6J mouse […] model assessed as reduction in food intake administered once daily for 9 days and measured daily during compound dosing; type: functional, organism-based
Mus musculus [17] = assay: Anorexigenic activity in sc dosed C57BL/6J mouse […] model assessed as reduction in body weight administered once daily for 9 days and measured daily during compound dosing; type: functional, organism-based
Mus musculus [18] = assay: Anorexigenic activity in C57BL/6J mouse assessed as reduction in food intake at 0.5 mg/kg, sc measured at 3 hrs interval for 6 hrs; type: functional, organism-based
Mus musculus [19] = assay: Anorexigenic activity in C57BL/6J mouse assessed as reduction in food intake at 0.5 mg/kg, sc measured at 24 hrs post-dose; type: functional, organism-based
Mus musculus [20] = assay: Anorexigenic activity in C57BL/6J mouse assessed as reduction in body weight at 0.5 mg/kg, sc measured daily for 2 days; type: functional, organism-based
Mus musculus [21] = assay: Anorexigenic activity in C57BL/6J mouse […] model assessed as reduction in food intake at 0.1 mg/kg, sc administered once daily for 9 days and measured daily during compound dosing; type: functional, organism-based
Mus musculus [22] = assay: Anorexigenic activity in C57BL/6J mouse […] model assessed as reduction in body weight at 0.1 mg/kg, sc administered once daily for 9 days and measured daily during compound dosing; type: functional, organism-based
[23] = Half life in C57BL/6J mouse; type: ADME; details: in vivo

Sequence of Vasopressin V2 receptor (P30518 whole entry): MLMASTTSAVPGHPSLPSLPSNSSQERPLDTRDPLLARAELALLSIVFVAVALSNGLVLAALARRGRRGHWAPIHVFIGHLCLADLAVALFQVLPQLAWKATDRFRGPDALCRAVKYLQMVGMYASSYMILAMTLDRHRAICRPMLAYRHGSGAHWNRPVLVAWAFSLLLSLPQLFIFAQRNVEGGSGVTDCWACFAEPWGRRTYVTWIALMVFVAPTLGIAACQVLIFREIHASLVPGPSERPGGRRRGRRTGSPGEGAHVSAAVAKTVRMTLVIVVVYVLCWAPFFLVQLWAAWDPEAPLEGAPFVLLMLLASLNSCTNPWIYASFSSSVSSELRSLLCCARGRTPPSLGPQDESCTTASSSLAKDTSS

Compound	EC50 (Oxytocin receptor [2]) [nM]	%max [3] [%]	EC50 (Oxytocin receptor [4]) [nM]	%max [5] [%]	Ratio EC50 [6]	also measured
CCCCCCCCCCCCCCCC(=O)NCCOCCOCCOCCOCCOCCOCCOCCOCCC(=O)NCCCC[C@H](NC(=O)CNC(=O)[C@@H]1CSSC[C@H](N)C(=O)N[C@@H](Cc2ccc(O)cc2)C(=O)N[C@@H]([C@@H](C)CC)C(=O)N[C@@H](CCC(N)=O)C(=O)N[C@@H](CC(N)=O)C(=O)N1)C(=O)NCC(N)=O (H-CYIQNCGK([PEG8-Palmitoyl])G-NH2; disulfide 1-6)						half-life [1]: 1200 min
CC(C)C[C@H](NC(=O)[C@@H]1CCCN1C(=O)[C@@H]1CSCCCC(=O)N[C@@H](Cc2ccc(O)cc2)C(=O)N[C@@H](CSCC(N)=O)C(=O)N[C@@H](CCC(N)=O)C(=O)N[C@@H](CC(N)=O)C(=O)N1)C(=O)NCC(N)=O (YC(Cam)QNCPLG-NH2; linker N-5 via X2)	> 1000	2				
CCCCCCCCCCCCCC(=O)NCCOCCOCCNC(=O)CSC[C@@H]1NC(=O)[C@H](Cc2ccc(O)cc2)NC(=O)CCCSC[C@@H](C(=O)N2CCC[C@H]2C(=O)N[C@@H](CC(C)C)C(=O)NCC(N)=O)NC(=O)[C@H](CC(N)=O)NC(=O)[C@H](CCC(N)=O)NC1=O (YC(X3)QNCPLG-NH2; linker N-5 via X2)	> 1000	2.3				
CC[C@H](C)[C@@H]1NC(=O)[C@H](Cc2ccc(O)cc2)NC(=O)CCCSC[C@@H](C(=O)N2CCC[C@H]2C(=O)N[C@@H](CC(C)C)C(=O)NCC(N)=O)NC(=O)[C@H](CC(N)=O)NC(=O)[C@H](CSCC(N)=O)NC1=O (YIC(Cam)NCPLG-NH2; linker N-5 via X2)	14.4	47				
CCCCCCCCCCCCCC(=O)NCCOCCOCCNC(=O)CSC[C@@H]1NC(=O)[C@H]([C@@H](C)CC)NC(=O)[C@H](Cc2ccc(O)cc2)NC(=O)CCCSC[C@@H](C(=O)N2CCC[C@H]2C(=O)N[C@@H](CC(C)C)C(=O)NCC(N)=O)NC(=O)[C@H](CC(N)=O)NC1=O (YIC(X3)NCPLG-NH2; linker N-5 via X2)	> 1000	5.8				
CC[C@H](C)[C@@H]1NC(=O)[C@H](Cc2ccc(O)cc2)NC(=O)CCCSC[C@@H](C(=O)NCC(=O)N[C@@H](CSCC(=O)NCCOCCOCCC(=O)NCCOCCOCCC(=O)NCCCC[C@H](NC(=O)CCCCCCCCCCCCCCCCC(=O)O)C(=O)O)C(=O)NCC(N)=O)NC(=O)[C@H](CC(N)=O)NC(=O)[C@H](CCC(N)=O)NC1=O (YIQNCGC(X1)G-NH2; linker N-5 via X2)	193		2.58	125	74.7	solubility [7]: Soluble; EC50 (Vasopressin V2 receptor): 1800 nM; Tmax [8]: 7 h; half-life [9]: 1450 min; Cmax [10]: 9110 ng/mL; AUC(0-t) [11]: 350 µg·h/mL; concentration at 24 h [12]: > 850 nM; Kp at 7 h [13]: 0.005; Activity (Mus musculus [14]): Active; Activity (Mus musculus [15]): Active; Activity (Mus musculus [16]): Dose-dependent effect; Activity (Mus musculus [17]): Dose-dependent effect
CC[C@H](C)[C@@H]1NC(=O)[C@H](Cc2ccc(O)cc2)NC(=O)CCCSC[C@@H](C(=O)NCC(=O)N[C@@H](CSCC(=O)NCCOCCOCCC(=O)NCCOCCOCCC(=O)NCCCC[C@H](NC(=O)CCCCCCCCCCCCCCCCC(=O)O)C(=O)O)C(=O)N(C)CC(N)=O)NC(=O)[C@H](CC(N)=O)NC(=O)[C@H](CCC(N)=O)NC1=O (YIQNCGC(X1)[Sar]-NH2; linker N-5 via X2)	464		65.5	50	7.08	
CCCCCCCCCCCCCC(=O)NCCOCCOCCNC(=O)CSC[C@H](NC(=O)CNC(=O)[C@@H]1CSCCCC(=O)N[C@@H](Cc2ccc(O)cc2)C(=O)N[C@@H]([C@@H](C)CC)C(=O)N[C@@H](CCC(N)=O)C(=O)N[C@@H](CC(N)=O)C(=O)N1)C(=O)NCC(N)=O (YIQNCGC(X3)G-NH2; linker N-5 via X2)	18.9		5.27	116	3.6	solubility [7]: Soluble
CCCCCCCCCCCCCC(=O)NCCOCCOCCNC(=O)CSC[C@H](NC(=O)CNC(=O)[C@@H]1CSCCCC(=O)N[C@@H](Cc2ccc(O)cc2)C(=O)N[C@@H]([C@@H](C)CC)C(=O)N[C@@H](CCC(N)=O)C(=O)N[C@@H](CC(N)=O)C(=O)N1)C(=O)N(C)CC(N)=O (YIQNCGC(X3)[Sar]-NH2; linker N-5 via X2)	56.9		10.5	57	5.4	
CC[C@H](C)[C@@H]1NC(=O)[C@H](Cc2ccc(O)cc2)NC(=O)CCCSC[C@@H](C(=O)NCC(=O)N[C@@H](CSCC(=O)NCCOCCOCCOCCNC(=O)CCCCCCCCCCCCCCCCC(=O)O)C(=O)NCC(N)=O)NC(=O)[C@H](CC(N)=O)NC(=O)[C@H](CCC(N)=O)NC1=O (YIQNCGC(X4)G-NH2; linker N-5 via X2)	173		3.41	117	50.9	solubility [7]: Soluble
CC[C@H](C)[C@@H]1NC(=O)[C@H](Cc2ccc(O)cc2)NC(=O)CCCSC[C@@H](C(=O)NCC(=O)N[C@@H](CSCC(=O)NCCOCCOCCOCCNC(=O)CCCCCCCCCCCCCCCCC(=O)O)C(=O)N(C)CC(N)=O)NC(=O)[C@H](CC(N)=O)NC(=O)[C@H](CCC(N)=O)NC1=O (YIQNCGC(X4)[Sar]-NH2; linker N-5 via X2)	831		52.4	34	15.9	
CC[C@H](C)[C@@H]1NC(=O)[C@H](Cc2ccc(O)cc2)NC(=O)CCCSC[C@@H](C(=O)N2CCC[C@H]2C(=O)N[C@@H](CSCC(N)=O)C(=O)NCC(N)=O)NC(=O)[C@H](CC(N)=O)NC(=O)[C@H](CCC(N)=O)NC1=O (YIQNCPC(Cam)G-NH2; linker N-5 via X2)	4.8	97				
CCCCCCCCCCCCCC(=O)NCCOCCOCCNC(=O)CSC[C@H](NC(=O)[C@@H]1CCCN1C(=O)[C@@H]1CSCCCC(=O)N[C@@H](Cc2ccc(O)cc2)C(=O)N[C@@H]([C@@H](C)CC)C(=O)N[C@@H](CCC(N)=O)C(=O)N[C@@H](CC(N)=O)C(=O)N1)C(=O)NCC(N)=O (YIQNCPC(X3)G-NH2; linker N-5 via X2)	5.28	70				
CC[C@H](C)[C@@H]1NC(=O)[C@H](Cc2ccc(OC)cc2)NC(=O)CCCSC[C@@H](C(=O)N2CCC[C@H]2C(=O)N[C@@H](CC(C)C)C(=O)NCC(N)=O)NC(=O)[C@H](CC(N)=O)NC(=O)[C@H](CCC(N)=O)NC1=O [CARBETOCIN] (Y(Me)IQNCPLG-NH2; linker N-5 via X2)						Activity (Mus musculus [18]): Active; Activity (Mus musculus [19]): inactive; Activity (Mus musculus [20]): inactive; Activity (Mus musculus [21]): Active; Activity (Mus musculus [22]): Active; half-life [23]: 40 min
CC[C@H](C)[C@@H]1NC(=O)[C@H](Cc2ccc(O)cc2)NC(=O)[C@@H](N)CSSC[C@@H](C(=O)N2CCC[C@H]2C(=O)N[C@@H](CC(C)C)C(=O)NCC(N)=O)NC(=O)[C@H](CC(N)=O)NC(=O)[C@H](CCC(N)=O)NC1=O [OXYTOCIN]						half-life [23]: 2 to 3 min
